In ChEMBL document CHEMBL5143523, “Construction and activity evaluation of novel benzodioxane derivatives as dual-target antifungal inhibitors” (Eur J Med Chem, 2022):
pIC50: −log10 of the molar value. Converted amounts (≈) assume the structure as drawn. The source made the active and inactive calls. The calls are words filed in the database; no cut-off is given here.

Columns and labels:
Candida albicans [1] = test: Antifungal activity against Candida albicans ATCC 10231 assessed as fungal growth inhibition measured after 72 hrs by CLSI protocol based liquid medium dilution method; assay type: functional
Pichia kudriavzevii = test: Antifungal activity against Candida krusei ATCC 6258 assessed as fungal growth inhibition measured after 72 hrs by CLSI protocol based liquid medium dilution method; assay type: functional
Nakaseomyces glabratus = test: Antifungal activity against Candida glabrata ATCC 0001 assessed as fungal growth inhibition measured after 72 hrs by CLSI protocol based liquid medium dilution method; assay type: functional
Candida tropicalis = test: Antifungal activity against Candida tropicalis ATCC 1369 assessed as fungal growth inhibition measured after 72 hrs by CLSI protocol based liquid medium dilution method; assay type: functional
Aspergillus fumigatus = test: Antifungal activity against Aspergillus fumigatus KM8001 assessed as fungal growth inhibition measured after 72 hrs by CLSI protocol based liquid medium dilution method; assay type: functional
Candida albicans [2] = test: Antifungal activity against fluconazole resistant Candida albicans strain 17# assessed as fungal growth inhibition measured after 72 hrs by CLSI protocol based liquid medium dilution method; assay type: functional
Candida albicans [3] = test: Antifungal activity against fluconazole resistant Candida albicans strain CaR assessed as fungal growth inhibition measured after 72 hrs by CLSI protocol based liquid medium dilution method; assay type: functional
Candida albicans [4] = test: Antifungal activity against fluconazole resistant Candida albicans strain 103 assessed as fungal growth inhibition measured after 72 hrs by CLSI protocol based liquid medium dilution method; assay type: functional
Candida albicans [5] = test: Antifungal activity against fluconazole resistant Candida albicans strain 901 assessed as fungal growth inhibition measured after 72 hrs by CLSI protocol based liquid medium dilution method; assay type: functional
Candida albicans [6] = test: Antifungal activity against fluconazole resistant Candida albicans strain 904 assessed as fungal growth inhibition measured after 72 hrs by CLSI protocol based liquid medium dilution method; assay type: functional
Candida albicans [7] = test: Induction of apoptosis in Candida albicans ATCC SC5314 cells assessed as live cells at 8 ug/ml incubated for 72 hrs by Annexin V-FITC/PI staining based flow cytometry method (reference value: 95.56%); assay type: functional; settings: dose 8 µg/ml
Candida albicans [8] = test: Induction of apoptosis in Candida albicans ATCC SC5314 cells assessed as early apoptotic cells at 8 ug/ml incubated for 72 hrs by Annexin V-FITC/PI staining based flow cytometry method (reference value: 0.56%); assay type: functional; settings: dose 8 µg/ml
Candida albicans [9] = test: Induction of apoptosis in Candida albicans ATCC SC5314 cells assessed as necrotic cells at 8 ug/ml incubated for 72 hrs by Annexin V-FITC/PI staining based flow cytometry method (reference value: 3.76%); assay type: functional; settings: dose 8 µg/ml
Candida albicans [10] = test: Induction of apoptosis in Candida albicans ATCC SC5314 cells assessed as late apoptotic cells at 8 ug/ml incubated for 72 hrs by Annexin V-FITC/PI staining based flow cytometry method (reference value: 0.12%); assay type: functional; settings: dose 8 µg/ml
Candida albicans [11] = test: Antifungal activity against Candida albicans ATCC SC5314 assessed as decrease in ergosterol content at 4 ug/ml incubated for 48 hrs by LC-MS analysis (reference value: 90.6%); assay type: functional; parameters: scale not given: the % may be the effect or the level left; settings: dose 4 µg/ml
Candida albicans [12] = test: Antifungal activity against Candida albicans ATCC SC5314 assessed as change in squalene level at 4 ug/ml incubated for 48 hrs by LC-MS analysis; assay type: functional; settings: dose 4 µg/ml
Candida albicans [13] = test: Antifungal activity against Candida albicans ATCC SC5314 assessed as change in lanosterol level at 4 ug/ml incubated for 48 hrs by LC-MS analysis (reference value: 3.7%); assay type: functional; settings: dose 4 µg/ml
Candida albicans [14] = test: Antifungal activity against Candida albicans ATCC SC5314 assessed as change in eburicol level at 4 ug/ml incubated for 48 hrs by LC-MS analysis (reference value: 1.4%); assay type: functional; settings: dose 4 µg/ml
Candida albicans [15] = test: Antifungal activity against Candida albicans ATCC SC5314 assessed as change in unknown sterol level at 4 ug/ml incubated for 48 hrs by LC-MS analysis (reference value: 4.3%); assay type: functional; settings: dose 4 µg/ml
Squalene epoxidase ERG1 = molecular target: T1, Squalene epoxidase ERG1 (Candida albicans, UniProt Q92206); test: Inhibition of SE in Candida albicans ATCC SC5314 incubated for 30 mins using squalene as substrate in presence of NADPH by spectrophotometer analysis
T1 sequence (Q92206 whole entry): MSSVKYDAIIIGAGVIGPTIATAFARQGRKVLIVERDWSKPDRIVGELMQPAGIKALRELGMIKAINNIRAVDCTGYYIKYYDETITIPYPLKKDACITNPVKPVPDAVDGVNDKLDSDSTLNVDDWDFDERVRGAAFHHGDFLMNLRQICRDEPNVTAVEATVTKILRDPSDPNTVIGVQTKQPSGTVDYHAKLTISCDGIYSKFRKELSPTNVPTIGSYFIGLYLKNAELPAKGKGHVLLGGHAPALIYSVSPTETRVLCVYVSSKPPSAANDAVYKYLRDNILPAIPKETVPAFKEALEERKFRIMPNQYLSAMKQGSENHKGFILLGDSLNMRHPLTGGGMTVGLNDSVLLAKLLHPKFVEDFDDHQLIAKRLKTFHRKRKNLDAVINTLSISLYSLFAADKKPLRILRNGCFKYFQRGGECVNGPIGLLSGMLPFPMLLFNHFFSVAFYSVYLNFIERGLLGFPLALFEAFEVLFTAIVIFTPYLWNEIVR

Candida albicans [16] = test: Antifungal activity against fluconazole resistant Candida albicans strain CaR assessed as fungal growth inhibition measured after 72 hrs in presence of miconazole by CLSI protocol based liquid medium dilution method
Candida albicans [17] = test: Antifungal activity against fluconazole resistant Candida albicans strain 17# assessed as fungal growth inhibition measured after 72 hrs in presence of miconazole by CLSI protocol based liquid medium dilution method
Candida albicans [18] = test: microbe, parasite or virus in culture; settings: Candida albicans, 103, 72 h
Description: Antifungal activity against fluconazole resistant Candida albicans strain 103 assessed as fungal growth inhibition measured after 72 hrs in presence of miconazole by CLSI protocol based liquid medium dilution method

Candida albicans [19] = test: microbe, parasite or virus in culture; settings: Candida albicans, 901, 72 h
Description: Antifungal activity against fluconazole resistant Candida albicans strain 901 assessed as fungal growth inhibition measured after 72 hrs in presence of miconazole by CLSI protocol based liquid medium dilution method

Candida albicans [20] = test: microbe, parasite or virus in culture; settings: Candida albicans, 904, 72 h
Description: Antifungal activity against fluconazole resistant Candida albicans strain 904 assessed as fungal growth inhibition measured after 72 hrs in presence of miconazole by CLSI protocol based liquid medium dilution method

[21] = molecular target: Lanosterol 14-alpha demethylase (Candida albicans (strain SC5314 / ATCC MYA-2876) (Yeast), UniProt P10613); test: Inhibition of CYP51 in Candida albicans ATCC SC5314 incubated for 30 mins using eburicol as substrate in presence of NADPH by HPLC analysis
Sequence of Lanosterol 14-alpha demethylase (P10613 whole entry): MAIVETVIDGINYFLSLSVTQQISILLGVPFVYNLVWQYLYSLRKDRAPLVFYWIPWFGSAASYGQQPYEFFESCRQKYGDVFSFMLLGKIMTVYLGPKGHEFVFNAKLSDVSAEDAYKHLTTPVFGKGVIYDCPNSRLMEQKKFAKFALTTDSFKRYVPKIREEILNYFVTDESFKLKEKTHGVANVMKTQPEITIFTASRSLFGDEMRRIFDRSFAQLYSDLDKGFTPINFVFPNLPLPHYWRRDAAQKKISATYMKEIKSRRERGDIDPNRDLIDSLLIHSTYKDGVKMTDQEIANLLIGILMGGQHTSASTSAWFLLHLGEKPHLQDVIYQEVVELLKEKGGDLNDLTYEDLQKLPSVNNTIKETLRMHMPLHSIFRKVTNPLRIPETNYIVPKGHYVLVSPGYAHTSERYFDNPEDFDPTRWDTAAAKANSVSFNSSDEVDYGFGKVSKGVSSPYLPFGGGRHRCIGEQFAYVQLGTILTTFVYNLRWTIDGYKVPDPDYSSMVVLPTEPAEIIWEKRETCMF

[22] = Hepatotoxicity in mouse infected with Candida albicans ATCC SC5314 assessed as change in plasma AST level at 4 mg/kg, ip administered ever other day for 12 days; assay type: toxicity, organism-based; settings: in vivo, 288 h, time 12 day
[23] = Hepatotoxicity in mouse infected with Candida albicans ATCC SC5314 assessed as change in plasma ALT level at 4 mg/kg, ip administered ever other day for 12 days; assay type: toxicity, organism-based; settings: in vivo, 288 h, time 12 day
[24] = Nephrotoxicity in mouse infected with Candida albicans ATCC SC5314 assessed as change in plasma BUN level at 4 mg/kg, ip administered ever other day for 12 days; assay type: toxicity, organism-based; settings: in vivo, 288 h, time 12 day
Candida albicans [25] = test: Antifungal activity against fluconazole resistant Candida albicans strain 901 assessed as decrease in fungal cell density at 4 ug/ml by fluorescence microscopy; assay type: functional, organism-based; settings: dose 4.0 µg/ml
[26] = Drug uptake in fluconazole resistant Candida albicans strain 901 at 4 ug/ml by fluorescence microscopy; assay type: ADME; settings: dose 4 µg/ml
Mus musculus [27] = test: In vivo antifungal activity against Candida albicans ATCC SC5314 infected mouse assessed as reduction in fungal infection region at 4 mg/kg, ip administered ever other day for 12 days; assay type: functional, organism-based; settings: time 12.0 day
Mus musculus [28] = test: In vivo antifungal activity against Candida albicans ATCC SC5314 infected mouse assessed as increase in body weight at 4 mg/kg, ip administered ever other day for 12 days; assay type: functional, organism-based; settings: time 12.0 day
Mus musculus [29] = test: In vivo antifungal activity against Candida albicans ATCC SC5314 infected mouse assessed as regular arrangement of endothelial tissue at 4 mg/kg, ip administered ever other day for 12 days by hematoxyin-eosin staining based microscopic analysis; assay type: functional, organism-based; settings: time 12.0 day
Mus musculus [30] = test: In vivo antifungal activity against Candida albicans ATCC SC5314 infected mouse model assessed as reduction in nuclear aggregation at 4 mg/kg, ip administered ever other day for 12 days by hematoxyin-eosin staining based microscopic analysis; assay type: functional, organism-based; settings: time 12.0 day
Mus musculus [31] = test: In vivo antifungal activity against Candida albicans ATCC SC5314 infected mouse model assessed as regular arrangement of intercellular space at 4 mg/kg, ip administered ever other day for 12 days by hematoxyin-eosin staining based microscopic analysis; assay type: functional, organism-based; settings: time 12.0 day
Mus musculus [32] = test: In vivo antifungal activity against Candida albicans ATCC SC5314 infected mouse model assessed as disappearance of pathogenic fungi at 4 mg/kg, ip administered ever other day for 12 days by hematoxyin-eosin staining based microscopic analysis; assay type: functional, organism-based; settings: time 12.0 day
[33] = Toxicity in mouse infected with Candida albicans ATCC SC5314 assessed as pathological changes in heart at 4 mg/kg, ip administered ever other day for 12 days by hematoxylin and eosin staining based histopathological analysis; assay type: organism-based; settings: in vivo, 288 h, time 12 day
[34] = Toxicity in mouse infected with Candida albicans ATCC SC5314 assessed as pathological changes in liver at 4 mg/kg, ip administered ever other day for 12 days by hematoxylin and eosin staining based histopathological analysis; assay type: organism-based; settings: in vivo, 288 h, time 12 day
[35] = Toxicity in mouse infected with Candida albicans ATCC SC5314 assessed as pathological changes in spleen at 4 mg/kg, ip administered ever other day for 12 days by hematoxylin and eosin staining based histopathological analysis; assay type: organism-based; settings: in vivo, 288 h, time 12 day
[36] = Toxicity in mouse infected with Candida albicans ATCC SC5314 assessed as pathological changes in lung at 4 mg/kg, ip administered ever other day for 12 days by hematoxylin and eosin staining based histopathological analysis; assay type: organism-based; settings: in vivo, 288 h, time 12 day
[37] = Toxicity in mouse infected with Candida albicans ATCC SC5314 assessed as pathological changes in kidney at 4 mg/kg, ip administered ever other day for 12 days by hematoxylin and eosin staining based histopathological analysis; assay type: organism-based; settings: in vivo, 288 h, time 12 day
Candida albicans [38] = test: Antifungal activity against Candida albicans assessed as fungal growth inhibition measured after 72 hrs by CLSI protocol based liquid medium dilution method; assay type: functional

Row | SMILES | MIC50 (Candida albicans [1]) [µg/mL] | MIC50 (Pichia kudriavzevii) [µg/mL] | MIC50 (Nakaseomyces glabratus) [µg/mL] | MIC50 (Candida tropicalis) [µg/mL] | MIC50 (Aspergillus fumigatus) [µg/mL] | MIC50 (Candida albicans [2]) [µg/mL] | MIC50 (Candida albicans [3]) [µg/mL] | MIC50 (Candida albicans [4]) [µg/mL] | MIC50 (Candida albicans [5]) [µg/mL] | MIC50 (Candida albicans [6]) [µg/mL] | Activity (Candida albicans [7]) [%] | Activity (Candida albicans [8]) [%] | Activity (Candida albicans [9]) [%] | Activity (Candida albicans [10]) [%] | Activity (Candida albicans [11]) [%] | Activity (Candida albicans [12]) [%] | Activity (Candida albicans [13]) [%] | Activity (Candida albicans [14]) [%] | Activity (Candida albicans [15]) [%] | pIC50 (Squalene epoxidase ERG1) | further results
1 | CN(C/C=C/c1ccccc1)Cc1cccc2ccccc12 [NAFTIFINE] | 0.5 (≈ 1.74 µM) | 0.5 (≈ 1.74 µM) | 1 (≈ 3.48 µM) | 0.5 (≈ 1.74 µM) | 4 (≈ 13.9 µM) | 2 (≈ 6.96 µM) | 4 (≈ 13.9 µM) | 4 (≈ 13.9 µM) | 2 (≈ 6.96 µM) | 4 (≈ 13.9 µM) | 61.6 | 0.56 | 35.85 | 1.99 | 35.1 | 52.8 | 2.6 | 3.7 | 5.8 | 6.50 | MIC50 (Candida albicans [16]): 1 µg/mL; MIC50 (Candida albicans [17]): 1 µg/mL; MIC50 (Candida albicans [18]): 2 µg/mL (≈ 6.96 µM); MIC50 (Candida albicans [19]): 2 µg/mL (≈ 6.96 µM); MIC50 (Candida albicans [20]): 1 µg/mL (≈ 3.48 µM)
2 | O=C(N[C@H](Cc1ccccc1)Cn1cncn1)c1ccc2c(c1)OCCO2 | 0.25 (≈ 0.686 µM) | 0.125 (≈ 0.343 µM) | 0.25 (≈ 0.686 µM) | 0.125 (≈ 0.343 µM) | 2 (≈ 5.49 µM) | 2 (≈ 5.49 µM) | 1 (≈ 2.74 µM) | 1 (≈ 2.74 µM) | 1 (≈ 2.74 µM) | 2 (≈ 5.49 µM) | 52.17 | 0.38 | 45.83 | 1.62 | 24.7 | 15.3 | 18.5 | 35.3 | 6.2 | 6.08 | pIC50 [21]: 6.45; Activity [22]: 83 IU/L; Activity [23]: 54.6 IU/L; Activity [24]: 13.1 mmol/L; Activity (Candida albicans [25]): Active; Drug uptake [26]: Active; Activity (Mus musculus [27]): Active; Activity (Mus musculus [28]): Active; Activity (Mus musculus [29]): Active; Activity (Mus musculus [30]): Active; Activity (Mus musculus [31]): Active; Activity (Mus musculus [32]): Active; Activity [33]: Non-Toxic; Activity [34]: Non-Toxic; Activity [35]: Non-Toxic; Activity [36]: Non-Toxic; Activity [37]: Non-Toxic
3 | CC(C)[C@H](NC(=O)c1cccc2c1OCCO2)C(=O)N[C@@H](Cn1ccnc1)c1ccccc1 | 0.25 (≈ 0.557 µM) | 0.25 (≈ 0.557 µM) | 0.5 (≈ 1.11 µM) | 0.5 (≈ 1.11 µM) | > 8 | – | – | – | – | – | – | – | – | – | – | – | – | – | – | – | MIC50 (Candida albicans [38]): 0.25 µg/mL (≈ 0.557 µM)
